Measured values taken from patent US20190307732A1, “METHODS OF TREATING MITOCHONDRIAL AND METABOLIC DISORDERS” (Abraxis Bioscience, LLC, priority 2016, published 2019).

Test system: S6 phosphorylation
Experiment: Inhibition of S6 phosphorylation (pS6) in IMR90 fibroblast lysates
Type: cell-based
Conditions: Homo sapiens, IMR-90; IMR90 fibroblasts; dose of 1 ng/mL; FIG. 2
Procedure: IMR90 fibroblasts were administered varying doses of nab-sirolimus or rapamycin. Cell lysates were used to determine inhibition of S6 phosphorylation. Presence of vimentin. S6, and phosphorylated S6 (pS6) was measured.

## CO[C@H]1C[C@@H]2CC[C@@H](C)[C@@](O)(O2)C(=O)C(=O)N2CCCC[C@H]2C(=O)O[C@H]([C@H](C)C[C@@H]2CC[C@@H](O)[C@H](OC)C2)CC(=O)[C@H](C)/C=C(\C)[C@@H](O)[C@@H](OC)C(=O)[C@H](C)C[C@H](C)/C=C/C=C/C=C/1C [rapamycin]
  inhibition at 0.001 µg/mL: 100%
